Test results taken from patent publication US12552772B2, “2-pyrazole anilines and related analogs for inhibiting YAP/TAZ-TEAD” (KATHOLIEKE UNIVERSITEIT LEUVEN, priority 2021, dated 2026).
pEC50: −log10 of the molar value.

Tested on: YAP/TAZ-TEAD transcription
Test: Reporter gene assay for measuring the inhibition of YAP/TAZ-TEAD transcription (TEAD-responsive element luciferase reporter in Hek293T cells)
Assay type: cell-based
Settings: Homo sapiens, HEK-293T, 24 hours incubation
Method: Hek293T cells are cultured in DMEM supplemented with 10% fetal bovine serum, Sodium pyruvate, Sodium bicarbonate, L-glutamine. The cells are harvested and transiently transfected with TEAD-responsive element luciferase reporter. Transfected cells are plated in 384-wells plate containing pre-diluted compounds. After 24 hours incubation at 37° C./5% CO2, assay plates were cooled down to RT and levelled to an equal volume per well, prior to the addition of 25 uL luciferase substrate SteadyLite (Perkin Elmer)/well. The plate was shaken for 10 min at 600 rpm, centrifuged for 1 min at 500 rpm and measured with an Envision reader (PerkinElmer). The amount of relative light units produced by the TEAD reporter is used to calculated percent of inhibition.
The percent of reporter inhibition was calculated in the presence of a positive control inhibitor (100% inhibition) versus a condition with the presence of the vehicle basal activity of the reporter (0% inhibition). The ability of a test compound to inhibit this activity was determined as: Percentage inhibition=[1−((RLU determined in the presence of vehicle−RLU determined for sample with test compound present) divided by (RLU determined in the presence of vehicle−RLU determined for sample with positive control inhibitor))]*100
The activities of the example compounds tested are depicted in the table below. The activity ranges A, B and C refer to EC50 values in the reporter gene assay as described as follows: “A”: EC50<1 μM; “B”: 1 μM s EC50≤20 μM and “C”: EC50>20 μM, NT=not tested.

| Structure (SMILES) | pEC50 |
| --- | --- |
| c1ccc(Nc2cccc(-c3ccn(CCc4cccnc4)n3)c2)cc1 [compound 046, N-phenyl-3-(1-(2-(pyridin-3-yl)ethyl)-1H-pyrazol-3-yl)aniline] | 4.70 to 6.00 |
| C=CC(=O)NCc1ccc([C@H]2CC[C@H](C(F)(F)F)CC2)cc1-c1ccn(C)n1 [compound 178, trans-N-(2-(1-methyl-1H-pyrazol-3-yl)-4-(4-(trifluoromethyl)cyclohexyl)benzyl)acrylamide] | > 6.00 |
| C=CC(=O)Nc1cncc(-c2cccc(-c3ccn(Cc4ccc(C(F)(F)F)cc4)n3)c2)c1 [compound 011, N-(5-(3-(1-(4-(trifluoromethyl)benzyl)-1H-pyrazol-3-yl)phenyl)pyridin-3-yl)acrylamide] | 4.70 to 6.00 |
| O=S(=O)(O)CCNc1ccc(-c2ccc(Cl)cc2)cc1-c1ccn(Cc2cccnc2)n1 [compound 107, 2-((4′-chloro-3-(1-(pyridin-3-ylmethyl)-1H-pyrazol-3-yl)-[1,1′-biphenyl]-4-yl)amino)ethane-1-sulfonic acid] | < 4.70 |
| c1ccc(-c2cccc(-c3ccnn3Cc3cccnc3)c2)cc1 [compound 015, 3-((5-([1,1′-biphenyl]-3-yl)-1H-pyrazol-1-yl)methyl)pyridine] | < 4.70 |
| CNS(=O)(=O)CCNc1ccc(-c2ccccc2)cc1-c1ccn(Cc2cccnc2)n1 [compound 050, N-methyl-2-((3-(1-(pyridin-3-ylmethyl)-1H-pyrazol-3-yl)-[1,1′-biphenyl]-4-yl)amino)ethane-1-sulfonamide] | > 6.00 |
| C=CC(=O)NCc1ccc(-c2ccc(C(F)(F)F)nc2)cc1-c1ccn(C)n1 [compound 148, N-(2-(1-methyl-1H-pyrazol-3-yl)-4-(6-(trifluoromethyl)pyridin-3-yl)benzyl)acrylamide] | > 6.00 |
| CCC(=O)NCc1cnc(-c2ccc(F)cc2)cc1-c1cc2n(n1)CCCC2 [compound 232, N-((6-(4-fluorophenyl)-4-(4,5,6,7-tetrahydropyrazolo[1,5-a]pyridin-2-yl)pyridin-3-yl)methyl)propionamide] | > 6.00 |
| CN(C)C/C=C/C(=O)NCc1cnc(-c2ccc(F)cc2)cc1-c1ccn(C(F)F)n1 [compound 208, (E)-N-((4-(1-(difluoromethyl)-1H-pyrazol-3-yl)-6-(4-fluorophenyl)pyridin-3-yl)methyl)-4-(dimethylamino)but-2-enamide] | < 4.70 |
| C=CC(=O)NCc1cnc(-c2ccc(F)cc2)cc1-n1ccc(C(F)(F)F)n1 [compound 246, N-((6-(4-fluorophenyl)-4-(3-(trifluoromethyl)-1H-pyrazol-1-yl)pyridin-3-yl)methyl)acrylamide] | < 4.70 |
| C=CC(=O)NCc1ccc(-c2ccc(F)cc2)cc1-c1ccn(CCOC(F)(F)F)n1 [compound 155, N-((4′-fluoro-3-(1-(2-(trifluoromethoxy)ethyl)-1H-pyrazol-3-yl)-[1,1′-biphenyl]-4-yl)methyl)acrylamide] | 4.70 to 6.00 |
| CNS(=O)(=O)CCNc1ccc(-c2cc(F)ccc2F)cc1-c1ccn(Cc2cccnc2)n1 [compound 092, 2-((2′,5′-difluoro-3-(1-(pyridin-3-ylmethyl)-1H-pyrazol-3-yl)-[1,1′-biphenyl]-4-yl)amino)-N-methylethane-1-sulfonamide] | > 6.00 |
| C=CC(=O)Nc1cncc(-c2cccc(-c3ccn(C)n3)c2)c1 [compound 013, N-(5-(3-(1-methyl-1H-pyrazol-3-yl)phenyl)pyridin-3-yl)acrylamide] | 4.70 to 6.00 |
| O=C1CCN1c1ccc(Cn2ccc(-c3cccc(-c4ccccc4)c3)n2)cn1 [compound 038, 1-(5-((3-([1,1′-biphenyl]-3-yl)-1H-pyrazol-1-yl)methyl)pyridin-2-yl)azetidin-2-one] | < 4.70 |
| Cn1ccc(-c2cc(-c3ccccc3)ccc2NCCS(N)(=O)=O)n1 [compound 058, 2-((3-(1-methyl-1H-pyrazol-3-yl)-[1,1′-biphenyl]-4-yl)amino)ethane-1-sulfonamide] | > 6.00 |
| NC(=O)c1ccncc1Cn1ccc(-c2cccc(-c3ccccc3)c2)n1 [compound 043, 3-((3-([1,1′-biphenyl]-3-yl)-1H-pyrazol-1-yl)methyl)isonicotinamide] | 4.70 to 6.00 |
| N#Cc1cccc(Cn2ccc(-c3cccc(-c4ccccc4)c3)n2)c1 [compound 020, 3-((3-([1,1′-biphenyl]-3-yl)-1H-pyrazol-1-yl)methyl)benzonitrile] | 4.70 to 6.00 |
| O=C1CC(Nc2cc(-c3ccccc3)cc(-c3ccn(Cc4cccnc4)n3)c2)CCN1 (stereo not shown) [compound 073, 4-((5-(1-(pyridin-3-ylmethyl)-1H-pyrazol-3-yl)-[1,1′-biphenyl]-3-yl)amino)piperidin-2-one] | 4.70 to 6.00 |
| C=CC(=O)NCc1ccc(-c2ccc(F)cc2)cc1-c1ccn(CC2COC2)n1 [compound 159, N-((4′-fluoro-3-(1-(oxetan-3-ylmethyl)-1H-pyrazol-3-yl)-[1,1′-biphenyl]-4-yl)methyl)acrylamide] | > 6.00 |

| Structure (SMILES) | pEC50 |
| --- | --- |
| CNC(=O)CCNc1ccc(-c2ccccc2)cc1-c1ccn(Cc2cccnc2)n1 [compound 060, N-methyl-3-((3-(1-(pyridin-3-ylmethyl)-1H-pyrazol-3-yl)-[1,1′-biphenyl]-4-yl)amino)propanamide] | > 6.00 |
| c1ccc(-c2cccc(-c3ccn(Cc4cccnc4)n3)c2)cc1 [compound 014, 3-((3-([1,1′-biphenyl]-3-yl)-1H-pyrazol-1-yl)methyl)pyridine] | 4.70 to 6.00 |
| C=CC(=O)NCc1ccc(-c2ccc(F)cc2)nc1-c1ccn(CC2CC2)n1 [compound 195, N-((2-(1-(cyclopropylmethyl)-1H-pyrazol-3-yl)-6-(4-fluorophenyl)pyridin-3-yl)methyl)acrylamide] | > 6.00 |
| CCC(=O)NCc1cc(-c2ccccc2)cc(-c2ccn(C)n2)c1 [compound 138, N-((5-(1-methyl-1H-pyrazol-3-yl)-[1,1′-biphenyl]-3-yl)methyl)propionamide] | 4.70 to 6.00 |
| N#CCCNc1ccc(-c2ccccc2)cc1-c1ccn(Cc2cccnc2)n1 [compound 084, 3-((3-(1-(pyridin-3-ylmethyl)-1H-pyrazol-3-yl)-[1,1′-biphenyl]-4-yl)amino)propanenitrile] | 4.70 to 6.00 |
| C=CC(=O)NCc1ccc(-c2ccc(C(F)(F)F)cc2)cc1-c1cnn(C(F)F)c1 [compound 173, N-((3-(1-(difluoromethyl)-1H-pyrazol-4-yl)-4′-(trifluoromethyl)-[1,1′-biphenyl]-4-yl)methyl)acrylamide] | > 6.00 |
| C=CC(=O)NCc1cnc(-c2ccc(F)cc2)cc1-n1cc(C(F)(F)F)cn1 [compound 248, N-((6-(4-fluorophenyl)-4-(4-(trifluoromethyl)-1H-pyrazol-1-yl)pyridin-3-yl)methyl)acrylamide] | > 6.00 |
| COc1ccc(-c2ccc(NCCS(=O)(=O)F)c(-c3ccn(Cc4cccnc4)n3)c2)cc1 [compound 110, 2-((4′-methoxy-3-(1-(pyridin-3-ylmethyl)-1H-pyrazol-3-yl)-[1,1′-biphenyl]-4-yl)amino)ethane-1-sulfonyl fluoride] | 4.70 to 6.00 |
| Cn1ccc(-c2cc(-c3ccccc3)ccc2NCCC(=O)O)n1 [compound 063, 3-((3-(1-methyl-1H-pyrazol-3-yl)-[1,1′-biphenyl]-4-yl)amino)propanoic acid] | > 6.00 |
| O=S1(=O)CCN(c2cc(-c3ccccc3)cc(-c3ccn(Cc4cccnc4)n3)c2)CC1 [compound 055, 4-(5-(1-(pyridin-3-ylmethyl)-1H-pyrazol-3-yl)-[1,1′-biphenyl]-3-yl)thiomorpholine 1,1-dioxide] | 4.70 to 6.00 |
| O=C(O)CNc1cc(-c2ccccc2)cc(-c2ccn(Cc3cccnc3)n2)c1 [compound 078, (5-(1-(pyridin-3-ylmethyl)-1H-pyrazol-3-yl)-[1,1′-biphenyl]-3-yl)glycine] | < 4.70 |
| O=C(Cc1cccnc1)Nc1cccc(-c2ccccc2)c1 [compound 048, N—([1,1′-biphenyl]-3-yl)-2-(pyridin-3-yl)acetamide] | 4.70 to 6.00 |
| CNS(=O)(=O)CCNc1ccc(-c2cccc(C(F)(F)F)c2)cc1-c1ccn(C)n1 [compound 120] | > 6.00 |
| C=CC(=O)NCc1cnc(-c2ccc(F)cc2)cc1-n1nnnc1C [compound 250, N-((6-(4-fluorophenyl)-4-(5-methyl-1H-tetrazol-1-yl)pyridin-3-yl)methyl)acrylamide] | < 4.70 |
| N#CCC(=O)Nc1ccc(-c2ccccc2)cc1-c1ccn(Cc2cccnc2)n1 [compound 081, 2-cyano-N-(3-(1-(pyridin-3-ylmethyl)-1H-pyrazol-3-yl)-[1,1′-biphenyl]-4-yl)acetamide] | 4.70 to 6.00 |
| C=CC(=O)NCc1ccc(-c2ccc(F)cc2)cc1-c1ccn(C2COC2)n1 [compound 154, N-((4′-fluoro-3-(1-(oxetan-3-yl)-1H-pyrazol-3-yl)-[1,1′-biphenyl]-4-yl)methyl)acrylamide] | > 6.00 |
| CC(=O)Nc1cncc(-c2cccc(-c3ccn(Cc4ccccc4)n3)c2)c1 [compound 007, N-(5-(3-(1-benzyl-1H-pyrazol-3-yl)phenyl)pyridin-3-yl)acetamide] | > 6.00 |
| C=CC(=O)NCc1cnc(-c2ccc(C(F)F)cc2)cc1-c1ccn(C(F)F)n1 [compound 217, N-((4-(1-(difluoromethyl)-1H-pyrazol-3-yl)-6-(4-(difluoromethyl)phenyl)pyridin-3-yl)methyl)acrylamide] | > 6.00 |
